In ChEMBL document CHEMBL3885861, “Open TG-GATES”:

Species on record: Rattus norvegicus
Assay: Open TG-GATES - Regimen: Single
Assay type: toxicity, organism-based, Sprague-Dawley
Set-up: regimen Single, gender Male, age 6 weeks
Settings: in vivo, po, route gavage; for APTT / Bas / Eos / Fbg / Ht / Lym / MCHC / MCV / Mono / PT / Plat / RBC / Ret / WBC: tissue Blood; for KIDNEY_L / KIDNEY_R / KIDNEY_TOTAL: tissue Kidney
[1] = 0 mg/kg, 24 h, tissue Plasma, dose level Control
[2] = 10 mg/kg, 3 h, tissue Plasma, dose level Low
[3] = 10 mg/kg, 6 h, tissue Plasma, dose level Low

Molecule `CN(C)CCCN1c2ccccc2CCc2ccccc21` [IMIPRAMINE] has a TC [1] of 76 mg/dL, a TP [1] of 5.6 g/dL and a gamma-GTP [1] of 1 IU/L. It also gave a TERMINAL_BW (10 mg/kg, 3 h, dose level Low) of 203.3 g, an APTT (10 mg/kg, 3 h, dose level Low) of 16.8 s and a Bas (10 mg/kg, 3 h, dose level Low) of 0%. For the same molecule, the Eos (10 mg/kg, 3 h, dose level Low) was 1.2%, the Fbg (10 mg/kg, 3 h, dose level Low) was 264.4 mg/dL and the Ht (10 mg/kg, 3 h, dose level Low) was 42.9%. The Lym (10 mg/kg, 3 h, dose level Low) was 78.6%, the MCHC (10 mg/kg, 3 h, dose level Low) was 31.9% and the MCV (10 mg/kg, 3 h, dose level Low) was 66.6 fL. For the same molecule, the Mono (10 mg/kg, 3 h, dose level Low) was 2.8%, the PT (10 mg/kg, 3 h, dose level Low) was 16 s and the Plat (10 mg/kg, 3 h, dose level Low) was 108.8 x10_4/uL. For the same molecule, the RBC (10 mg/kg, 3 h, dose level Low) was 644 x10_4/ul, the Ret (10 mg/kg, 3 h, dose level Low) was 8.6% and the WBC (10 mg/kg, 3 h, dose level Low) was 74.5 x10_2/uL. For the same molecule, the KIDNEY_L (10 mg/kg, 3 h, dose level Low) was 0.9 g, the KIDNEY_R (10 mg/kg, 3 h, dose level Low) was 0.9 g and the KIDNEY_TOTAL (10 mg/kg, 3 h, dose level Low) was 1.8 g. It also gave an LIVER (10 mg/kg, 3 h, tissue Liver, dose level Low) of 9.1 g, an ALP [2] of 1700 IU/L and an ALT [2] of 46.6 IU/L. The AST [2] was 76.8 IU/L, the BUN [2] was 8.6 mg/dL and the CRE [2] was 0.1 mg/dL. The DBIL [2] was 0.01 mg/dL, the GLC [2] was 187.4 mg/dL and the IP [2] was 10 mg/dL. It also gave a K [2] of 4.3 meq/L, an LDH [2] of 73 IU/L and an RALB [2] of 2.6 g/dL. It also gave a TBIL [2] of 0.066 mg/dL, a TC [2] of 80.4 mg/dL and a TP [2] of 5.5 g/dL. The gamma-GTP [2] was 1.2 IU/L, the TERMINAL_BW (10 mg/kg, 6 h, dose level Low) was 199.7 g and the APTT (10 mg/kg, 6 h, dose level Low) was 16 s. It also gave a Bas (10 mg/kg, 6 h, dose level Low) of 0.2%, an Eos (10 mg/kg, 6 h, dose level Low) of 0.8% and a Fbg (10 mg/kg, 6 h, dose level Low) of 276.2 mg/dL. For the same molecule, the Ht (10 mg/kg, 6 h, dose level Low) was 42.9%, the Lym (10 mg/kg, 6 h, dose level Low) was 75% and the MCHC (10 mg/kg, 6 h, dose level Low) was 32.3%. The MCV (10 mg/kg, 6 h, dose level Low) was 66.5 fL, the Mono (10 mg/kg, 6 h, dose level Low) was 2.2% and the PT (10 mg/kg, 6 h, dose level Low) was 15.8 s. It also gave a Plat (10 mg/kg, 6 h, dose level Low) of 108.4 x10_4/uL, an RBC (10 mg/kg, 6 h, dose level Low) of 645.6 x10_4/ul and a Ret (10 mg/kg, 6 h, dose level Low) of 8.3%. It also gave a WBC (10 mg/kg, 6 h, dose level Low) of 92.4 x10_2/uL, a KIDNEY_L (10 mg/kg, 6 h, dose level Low) of 0.9 g and a KIDNEY_R (10 mg/kg, 6 h, dose level Low) of 0.9 g. The KIDNEY_TOTAL (10 mg/kg, 6 h, dose level Low) was 1.9 g, the ALP [3] was 1517 IU/L and the ALT [3] was 54.4 IU/L. For the same molecule, the AST [3] was 79.4 IU/L, the BUN [3] was 8.2 mg/dL and the CRE [3] was 0.2 mg/dL. For the same molecule, the GLC [3] was 183 mg/dL, the IP [3] was 9.6 mg/dL and the K [3] was 4.2 meq/L. For the same molecule, the LDH [3] was 139.2 IU/L, the PL [3] was 137.6 mg/dL and the RALB [3] was 2.5 g/dL. It also gave a TBIL [3] of 0.064 mg/dL and a TC [3] of 74.8 mg/dL.
